# Measured values as given in PMC9491098, “Discovery of novel drug-like antitubercular hits targeting the MEP pathway enzyme DXPS by strategic application of ligand-based virtual screening” (Chemical Science, 2022).
# Molecular target: T1, MtDXPS (Mycobacterium tuberculosis, UniProt P9WNS3)
# Assay: biochemical
# Conditions: not given
# T1 sequence (P9WNS3 whole entry, looked up): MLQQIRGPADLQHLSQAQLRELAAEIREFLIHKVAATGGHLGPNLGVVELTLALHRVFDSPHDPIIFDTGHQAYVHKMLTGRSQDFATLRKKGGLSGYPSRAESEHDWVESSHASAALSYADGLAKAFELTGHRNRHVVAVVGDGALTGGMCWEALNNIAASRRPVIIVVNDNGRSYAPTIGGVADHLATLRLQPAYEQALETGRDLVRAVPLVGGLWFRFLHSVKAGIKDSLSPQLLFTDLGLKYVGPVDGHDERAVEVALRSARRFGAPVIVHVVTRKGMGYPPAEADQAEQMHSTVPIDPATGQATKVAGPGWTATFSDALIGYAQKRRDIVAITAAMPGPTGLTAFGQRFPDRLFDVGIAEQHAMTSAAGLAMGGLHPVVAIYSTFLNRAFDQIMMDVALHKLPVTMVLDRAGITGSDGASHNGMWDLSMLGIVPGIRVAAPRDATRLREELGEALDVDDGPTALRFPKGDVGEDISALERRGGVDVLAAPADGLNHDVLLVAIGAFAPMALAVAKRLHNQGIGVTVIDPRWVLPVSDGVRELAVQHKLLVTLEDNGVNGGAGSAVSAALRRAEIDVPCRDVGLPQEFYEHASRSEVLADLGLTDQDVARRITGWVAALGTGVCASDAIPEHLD
Compound,IC50,inhibition at 1000 μM
NC(Cc1ccc(O)cc1)c1nc2ccccc2[nH]1 (stereo not shown) [Compound 75],> 1000 µM,–
"OCc1cc(CO)n(CCc2c[nH]cn2)n1 [Compound 2, reference compound]",> 2000 µM,–
"COc1cncc(Cn2ccnc2)c1 [Compound 1, reference compound]",> 2000 µM,–
O=Cc1ccc(O[C@@H]2O[C@H](CO)[C@@H](O)[C@H](O)[C@H]2O)cc1 [Compound 82],> 1000 µM,–
COc1cc(Cl)c(/C=C2\SC(=S)N(CC(=O)O)C2=O)c(OC)c1 [Compound 50],> 240 µM,–
O=C(O)Cc1ccc(-n2cnnn2)cc1 [Compound 53],–,~ 25 % inhibition

# Same assay, conditions: IC50 (μM)
row,Compound,IC50
1,Cc1cccc(C(=O)N2CCC(C(N)=O)CC2)c1 [Compound 44],> 1000 µM

# Same assay, conditions: IC50 against MtDXPS
row,Compound,IC50
1,Cc1nc(C)c(-c2csc(Nc3cccc(Cl)c3C)n2)s1 [Compound 8],117 ± 25 µM
2,CC(C)c1ccc(C(C)N2Cc3nc(N)ncc3C2=O)cc1 (stereo not shown) [Compound 4],1020 ± 88 µM

# Same assay, conditions: Table S1, first round of LBVS; MtDXPS; read-out: IC50
row,Compound,IC50
1,CC(C)(CO)NCc1cccs1 [Compound 64],> 1000 µM
2,Cc1n[nH]c(O)c1C1OC(=O)c2ccccc21 (stereo not shown) [Compound 39],> 1000 µM
3,O=C1N/C(=C/c2ccc(O)c(I)c2)C(=O)N1c1ccc(Cl)cc1 [Compound 60],> 120 µM
4,Cc1ccc(C2NC(N)=Nc3nc4ccccc4n32)o1 (stereo not shown) [Compound 49],> 1000 µM
5,CN1C(=O)CCC(C(=O)O)C1c1ccccc1 (stereo not shown) [Compound 68],> 1000 µM
6,Cc1ccc(-n2c(S)nnc2CCn2nc(C)cc2C)cc1 [Compound 73],> 500 µM
7,CCCCNC(=O)N(C)Cc1c(C)nn(CC)c1C [Compound 69],> 1000 µM
8,CSc1ccc(C2N=C(N)Nc3nc4ccccc4n32)cc1 (stereo not shown) [Compound 37],> 60 µM
9,COCC(=O)N(C)Cc1cn(C)nc1C [Compound 66],> 1000 µM
10,Cc1cc(C(=O)O)c(-c2ccccc2)o1 [Compound 55],> 1000 µM
11,CCc1cc(C(N)=O)c(NC(=O)c2cccnc2)s1 [Compound 87],> 60 µM
12,CN(C)Cc1ccc(O)cc1 [Compound 58],> 1000 µM
13,COc1cc(/C=C2\C(=O)Nc3ccc(Br)cc32)cc(OC)c1O [Compound 88],> 120 µM
14,Nn1c(S)nnc1Cn1cnc2ccccc21 [Compound 51],> 1000 µM
15,S=c1[nH]ccn1Cc1ccccc1 [Compound 54],> 500 µM
16,O=C(O)CCc1ccc(-c2ccc(F)cc2)n1Cc1ccco1 [Compound 48],> 500 µM
17,CCCCC(NS(=O)(=O)c1cc2c3c(c1)c(C)cc(=O)n3CC2)C(=O)O (stereo not shown) [Compound 90],> 60 µM
18,CCn1c(S)nnc1-c1csc2c1CCCC2 [Compound 40],> 240 µM
19,CC(C)c1ccc(CN(C(=O)COc2ccccc2)c2ccccn2)cc1 [Compound 47],> 30 µM
20,N=C1NC(=O)C(CC(N)=O)S1 (stereo not shown) [Compound 57],> 1000 µM
21,CCn1nccc1CN(C)C(=O)C1CCC1 [Compound 67],> 1000 µM
22,Oc1ncnc(O)c1C(c1cccs1)c1c(O)ncnc1O [Compound 43],> 500 µM

row,Compound,IC50
1,Cc1nc(-c2ccccc2)nc(Nc2ccccc2)c1Cc1ccccc1 [Compound 45],> 15 µM
2,Cc1cc(C)n(CCc2nnc(S)n2-c2ccc(Br)cc2)n1 [Compound 72],> 120 µM
3,O=C1NC(=O)C(c2ccccc2)N1 (stereo not shown) [Compound 56],> 1000 µM
4,CCCCC(C(=O)O)C(C)CC(=O)Nc1nncs1 (stereo not shown) [Compound 80],> 1000 µM
5,Cc1nn(CCc2nnc(S)n2Cc2ccccc2)c(C)c1Br [Compound 42],> 30 µM
6,Cc1c(/N=C2\C(=O)N(CC(=O)O)c3ccccc32)c(=O)n(-c2ccccc2)n1C [Compound 84],> 120 µM
7,O=C(O)c1cc(O)ccc1C=C(Cl)Cl [Compound 79],> 1000 µM
8,CCNC(=S)Nc1ccc(Cc2ccncc2)cc1 [Compound 52],> 240 µM
9,C=CCN1C(=O)N/C(=C/c2ccc(O)c(OCC)c2)C1=O [Compound 59],> 30 µM
10,COc1ccc(Cn2ccnc2)cc1N [Compound 70],> 1000 µM
11,Cc1ccccc1-n1c(S)nnc1-c1csc2c1CCCC2 [Compound 41],> 8 µM
12,Cc1ccc(C(=O)Nc2ccc(O)cc2C(=O)O)cc1 [Compound 86],> 120 µM
13,COc1ccc(OC)c(C2CC(=O)NC3=C2C(=O)CCC3)c1 (stereo not shown) [Compound 63],> 500 µM
14,OCc1cccnc1-c1nc2ccccc2s1 [Compound 61],> 60 µM
15,CCCSc1nnc(-c2ccccc2NC(C)=O)c(O)n1 [Compound 89],> 120 µM
16,COc1ccc2[nH]cc(C3NC(N)=Nc4nc5ccccc5n43)c2c1 (stereo not shown) [Compound 46],> 500 µM
17,CCC1CCC2(CC1)N=C(O)N(CC(=O)c1ccc3c(c1)CCC3)C2=O (stereo not shown) [Compound 71],> 60 µM
18,CN1NC(c2ccc(O)cc2)C2C(=O)NC(=O)C21 (stereo not shown) [Compound 85],> 120 µM
19,O=c1c2ncccc2nc(O)n1Cc1cccnc1 [Compound 65],> 240 µM
20,O=C(Nc1ccc(O)cc1C(=O)O)c1ccco1 [Compound 81],> 60 µM
21,Cc1cc(C)n(CCc2nnco2)n1 [Compound 74],> 1000 µM
22,Cc1sc(N)c(C(=O)c2ccccc2)c1C [Compound 38],> 120 µM

# Same assay, conditions: Table S2, second round of LBVS; MtDXPS; read-out: IC50
row,Compound,IC50
1,CCc1ccc(C2N=C(N)Nc3nc4ccccc4n32)cc1 (stereo not shown) [Compound 124],> 30 µM
2,COc1ccc(Cc2nc3ccccc3n2CC(O)CO)cc1 (stereo not shown) [Compound 105],> 2000 µM
3,O/N=C/c1cccn1-c1ccc(Br)cc1 [Compound 121],> 200 µM
4,COc1ccc(OC/C(=N\O)c2ccc(O)cc2O)cc1 [Compound 111],> 300 µM
5,O=C1/C(=N\O)c2ccc(Cl)cc2N1Cc1ccccc1 [Compound 112],> 900 µM
6,CCCOc1ccc(C2N=C(N)Nc3nc4ccccc4n32)cc1 (stereo not shown) [Compound 122],> 50 µM
7,CC(C)Cc1nc2ccccc2n1Cc1ccc(Cl)cc1 [Compound 104],> 63 µM
8,OCCc1nc2ccccc2n1Cc1cccc(Cl)c1 [Compound 100],> 236 µM
9,OCCc1nc2ccccc2n1Cc1ccc(F)cc1 [Compound 102],> 540 µM
10,O=C1/C(=N\O)c2c(Cl)cccc2N1Cc1ccccc1 [Compound 113],> 30 µM
11,Cc1sc(-n2c(C)cc(/C=N/O)c2C)c(C(=O)O)c1C [Compound 118],> 800 µM
12,OCCc1nc2ccccc2n1Cc1ccc(Cl)cc1 [Compound 101],> 440 µM
13,Cc1ccc(C)c2c1/C(=N/O)C(=O)N2Cc1ccccc1 [Compound 114],> 60 µM
14,Cc1ccc(/C(=N\O)c2ccc(O)cc2O)cc1 [Compound 110],> 1000 µM
15,CC(C)(C)C(O)/C(=N/O)n1cncn1 (stereo not shown) [Compound 120],> 200 µM
16,Nc1ccncc1/C(=N/O)c1ccccc1 [Compound 116],> 2000 µM
17,CC(C)(C)c1ccc(Cn2c(CCCO)nc3ccccc32)cc1 [Compound 103],> 90 µM
18,CN(C)c1ccc(C2NC(N)=Nc3nc4ccccc4n32)cc1 (stereo not shown) [Compound 125],> 200 µM
19,Nc1ncc2c(n1)CN(Cc1ccccc1C(F)(F)F)C2=O [Compound 107],> 380 µM
20,CNc1ncc2c(n1)CN(CCc1ccccc1F)C2=O [Compound 106],> 340 µM
21,NC1=NC(c2ccc(O)c(O)c2)n2c(nc3ccccc32)N1 (stereo not shown) [Compound 126],> 160 µM
22,O/N=C(/c1ccccc1)c1ccccn1 [Compound 117],> 500 µM
23,NC1=NC(c2ccccc2F)n2c(nc3ccccc32)N1 (stereo not shown) [Compound 123],> 120 µM
24,Nc1ncc2c(n1)CN(Cc1ccc3c(c1)OCO3)C2=O [Compound 108],> 260 µM
25,ON=C(c1ccccc1)c1ccccc1 [Compound 115],> 500 µM

# Same assay, conditions: Table S3, third round of LBVS; MtDXPS; read-out: IC50
row,Compound,IC50
1,FC(F)(F)c1ccc(Nc2nc(-c3ccncc3)cs2)cc1 [Compound 132],> 60 µM
2,Cc1c(Cl)cccc1Nc1nc(-c2cccnc2)cs1 [Compound 135],> 200 µM
3,Cc1nc(N)sc1-c1csc(Nc2ccccc2)n1 [Compound 26],> 120 µM
4,Cc1ccc(-c2csc(Nc3cccc(Cl)c3C)n2)cc1 [Compound 134],> 16 µM
5,Cc1nc(C)c(-c2csc(Nc3ccc(Cl)cn3)n2)s1 [Compound 31],> 500 µM
6,Cc1nc(NC(=O)c2ccccc2)sc1-c1csc(Nc2ccc(C(F)(F)F)cc2)n1 [Compound 133],> 120 µM

# Molecular target: T1, MtDXPS
# Assay: biochemical
# Conditions: K i* (μM), Table 1A, indole derivatives, MtDXPS
row,Compound,Ki
1,O=Cc1cn(Cc2ccc(Cl)c(Cl)c2)c2ccccc12 [Compound 13],> 10 µM

# Same assay, conditions: SAR discussion of Table 1A–C
row,Compound,"inhibitory activity against MtDXPS, SAR statement"
1,N/N=C(\Cc1ccc(Cl)cc1)c1ccc(O)cc1O [Compound 21],activity is partially retained

# Same assay, conditions: Table 1A, indole derivatives, MtDXPS; read-out: K i*
row,Compound,Ki
1,OCc1cn(Cc2cccc(Cl)c2)c2ccccc12 [Compound 15],> 10 µM
2,COc1cccc2c(CO)cn(Cc3ccc(Cl)c(Cl)c3)c12 [Compound 19],1.4 ± 0.3 µM
3,OCc1cn(Cc2ccc(Cl)cc2)c2ccccc12 [Compound 16],5.5 ± 0.6 µM
4,COCc1cn(Cc2ccc(Cl)c(Cl)c2)c2ccccc12 [Compound 14],> 5 µM
5,N#Cc1ccc2c(CO)cn(Cc3ccc(Cl)c(Cl)c3)c2c1 [Compound 18],1.7 ± 0.3 µM

# Same assay, conditions: Table 1B, oxime derivatives, MtDXPS; read-out: K i*
row,Compound,Ki
1,N/N=C(\Cc1ccc(Cl)cc1)c1ccc(O)cc1O [Compound 21],0.4 ± 0.05 µM
2,COc1ccc(C/C(=N\O)c2ccc(O)cc2O)cc1 [Compound 22],> 10 µM
3,COc1ccc(/C(Cc2ccc(Cl)cc2)=N/O)c(O)c1 [Compound 24],0.5 ± 0.1 µM
4,CO/N=C(\Cc1ccc(Cl)cc1)c1ccc(O)cc1O [Compound 20],> 10 µM

# Same assay, conditions: Table 1C, aminothiazole derivatives, MtDXPS; read-out: K i*
row,Compound,Ki
1,Cc1nc(N)sc1-c1csc(Nc2ccccc2C(F)(F)F)n1 [Compound 27],0.3 ± 0.02 µM
2,Cc1nc(N)sc1-c1csc(Nc2ccc(Cl)cn2)n1 [Compound 30],0.3 ± 0.1 µM
3,Cc1nc(N)sc1-c1csc(Nc2ccccc2)n1 [Compound 26],> 10 µM
4,Cc1nc(C)c(-c2csc(Nc3ccc(Cl)cn3)n2)s1 [Compound 31],> 10 µM
5,Oc1ccc(-c2csc(Nc3cccc(C(F)(F)F)c3)n2)c(O)c1 [Compound 29],0.5 ± 0.04 µM
6,Cc1nc(N)sc1-c1csc(Nc2cccc(C(F)(F)F)c2)n1 [Compound 28],0.4 ± 0.06 µM

# Molecular target: DrDXPS (WT) (Deinococcus radiodurans, UniProt Q9RUB5)
# Sequence (Q9RUB5 whole entry, looked up): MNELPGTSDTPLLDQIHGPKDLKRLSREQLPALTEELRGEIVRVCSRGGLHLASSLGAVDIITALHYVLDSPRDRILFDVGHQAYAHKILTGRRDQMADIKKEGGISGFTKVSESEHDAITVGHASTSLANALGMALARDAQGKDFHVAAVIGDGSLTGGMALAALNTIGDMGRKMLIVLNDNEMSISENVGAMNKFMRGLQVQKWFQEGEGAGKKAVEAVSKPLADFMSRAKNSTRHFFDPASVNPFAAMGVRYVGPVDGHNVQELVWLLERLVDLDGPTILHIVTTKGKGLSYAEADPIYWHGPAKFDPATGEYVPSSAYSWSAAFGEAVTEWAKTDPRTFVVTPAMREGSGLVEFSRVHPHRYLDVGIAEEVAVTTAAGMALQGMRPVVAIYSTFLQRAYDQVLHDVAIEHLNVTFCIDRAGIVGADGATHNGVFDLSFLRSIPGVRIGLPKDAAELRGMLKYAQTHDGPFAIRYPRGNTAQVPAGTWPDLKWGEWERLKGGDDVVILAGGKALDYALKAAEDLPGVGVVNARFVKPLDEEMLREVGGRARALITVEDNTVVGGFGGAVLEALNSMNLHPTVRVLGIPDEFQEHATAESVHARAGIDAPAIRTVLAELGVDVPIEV
# Assay: not given
# Conditions: pseudo-inhibitors; cited from earlier work
row,Compound,inhibition of DrDXPS
1,"OCc1cc(CO)n(CCc2c[nH]cn2)n1 [Compound 2, reference compound]",weak inhibitors
2,"COc1cncc(Cn2ccnc2)c1 [Compound 1, reference compound]",weak inhibitors
